Results taken from US20240307423A1, “FRACTIONS OF, AND MOLECULES RELEASED IN, PROTEIN RICH PLASMA WHICH INHIBIT IMMUNE RESPONSES AND REDUCE INFLAMMATION, AND METHODS OF OBTAINING” (NEW YORK SOCIETY FOR THE RELIEF OF THE RUPTURED AND …, priority 2021, published 2024).

How the values were obtained:
[1] = tested on: TLR9+CXCL4-activated human plasmacytoid dendritic cells (pDCs); experiment: IFN-α secretion (ELISA) by purified pDCs activated with CpG-B (TLR9 ligand) + CXCL4; assay type: cell-based; details: CXCL4 present
Description: (§1) PBMCs were prepared using Ficoll-Paque density gradient from fresh blood under internal Institutional Review Board-approved protocols. pDCs were isolated as previously described (Guiducci et al. 2008) using either using negative depletion (Miltenyi Biotech) or following cell sorting using a […]. All BDCA4+ cells also express BDCA2 (results not shown). As a result, pure pDCs were obtained and no markers for neutrophils (CD66) or myeloid cells were found by PCR.
(§2) For the TLR9 activation in pDCs, the cells were incubated in complete media alone, or CpG-B 1018 (0.25 or 1 μM), or CpG-C 274 at similar concentrations. In some assays, cells were also incubated with 10 μg/ml CXCL4 (R&D systems).
(§3) Supernatant from B cells and pDCs 24 hour culture was used for quantification of secreted IFNα with the use of an enzyme-linked immunosorbent assay (ELISA) (Mabtech) performed according to the manufacturer's protocol.
(§4) Data were analyzed using a Mann-Whitney U-test (t test using non parametric criteria for independent samples). Comparisons between PBMC and pDCs-depleted PBMC were tested using a parametric paired t-test. All analyses were performed using Prism software (GraphPad Software). Differences were considered significant at a P level less than 0.05 with *p<0.05; **p<0.01; ***p<0.001.

[2] = tested on: TLR9-activated human plasmacytoid dendritic cells (pDCs); experiment: IFN-α secretion (ELISA) by purified pDCs activated with TLR9 ligand alone (CpG1018 / CpG C274); assay type: cell-based; details: without CXCL4; various dilutions
Description: as §1, §2, §3, §4

With `CC(=O)N[C@H]1[C@H]([C@H](O)[C@H](O)CO)O[C@@](O)(C(=O)O)C[C@@H]1O` [N-Acetylneuraminic acid, 5-(acetylamino)-3,5-dideoxy-D-glycero-α-D-galacto-non-2-ulopyranosonic acid] the “inhibitory effect on TLR9-activated pDCs, IFN-α production relative to CpG-CXCL4” value [1] was “significant inhibitory effect” and the “inhibitory effect on TLR9-activated pDCs, IFN-α production relative to the TLR9 agonist CpG C274” value [2] was “significant inhibitory effect”.
